The results in this text go back to ChEMBL document CHEMBL4376816, “Discovery of the Oral Leukotriene C4 Synthase Inhibitor (1S,2S)-2-({5-[(5-Chloro-2,4-difluorophenyl)(2-fluoro-2-methylpropyl)amino]-3-methoxypyrazin-2-yl}carbonyl)cyclopropanecarboxylic Acid (AZD9898) as a New Treatment for Asthma” (J Med Chem, 2019).

The structures appear in SMILES notation. The source made the active and inactive calls. No cut-off for these calls is given here.

Series [1] has as its target T1, Leukotriene C4 synthase (Homo sapiens, UniProt Q16873).
T1 sequence (Q16873 whole entry): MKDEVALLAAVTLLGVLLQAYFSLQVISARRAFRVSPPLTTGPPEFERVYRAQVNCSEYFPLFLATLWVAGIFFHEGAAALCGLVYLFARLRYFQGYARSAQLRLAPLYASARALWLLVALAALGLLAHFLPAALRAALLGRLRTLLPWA

Series [2] in a line: Octanol/Sodium phosphate buffer partition coefficient, log D of compound at pH 7.4 at 1 mg incubated for overnight under shaking condition by LC-MS/MS analysis. The format is physicochemical.
Series [3] is described as follows: Intrinsic clearance in human hepatocytes at 1 uM assessed as per million cells after 2 to 60 mins by LC-MS/MS analysis. The format is ADME, cell-based, Hepatocyte. Conditions: read-out: CLH.
Series [4] has as its target T2, Leukotriene C4 synthase (Homo sapiens) (UniProt Q16873).
T2 sequence (whole entry): T1 sequence (Q16873 whole entry)
As to the kind of experiment: Inhibition of LTC4S in asthmatic human whole blood assessed as inhibition of calcium ionophore A23187 stimulated cysteinyl leukotrienes production preincuabted for 30 mins followed by calcium ionophore stimulation and measured after 10 mins by LC-MS analysis. The format is tissue-based.

The target in series [5] is T2, Leukotriene C4 synthase (Homo sapiens). Put plainly: Inhibition of LTC4S in healthy human whole blood assessed as inhibition of calcium ionophore A23187 stimulated cysteinyl leukotrienes production preincuabted for 30 mins followed by calcium ionophore stimulation and measured after 10 mins by LC-MS analysis. The series is classed as tissue-based.
The target in series [6] is T1, Leukotriene C4 synthase. The source holds these as a separate data set.
In series [7] the target is T2, Leukotriene C4 synthase (Homo sapiens).
A short description of series [8]: Displacement of [3H]-GABA/[3]-muscimol from GABA gated chloride channel in Sprague-Dawley rat cortical synoptic membranes by liquid scintillation analysis.

Regarding `COc1cc(N(CC(C)C)c2cc(C(F)(F)F)ccc2F)cnc1C(=O)[C@H]1C[C@@H]1C(=O)O`, the IC50 in series [1] came out at 6.8 nM. The logD in series [2] was found to be 1.4. In series [3], the hepatocyte CLint at 1 µM is 3.9 µL/min/1e6 cells.

Regarding `CC(c1cc2ccccc2s1)N(O)C(N)=O` (configuration not stated), the inhibition entry in series [4] and in series [5] was “Active” in each case.

Consider `COc1nc(N(CC(C)C)c2cc(C(F)(F)F)ccc2F)cnc1C(=O)[C@H]1C[C@@H]1C(=O)O`, for which the IC50 in series [1] was 3.5 nM; in series [6] it was 0.36 nM. Also, in series [2], the logD came out at 2. Also, the hepatocyte CLint at 1 µM in series [3] is 2.9 µL/min/1e6 cells.

With `COc1nc(C(=O)[C@H]2C[C@@H]2C(=O)O)ncc1N(CC1CC1)c1cccc2ccccc12`, the IC50 in series [6] was determined as 2.4 nM.

Take `COc1ccccc1C(=O)Nc1ccc(C(=O)c2ccc(N(C)c3ccc(Cl)cc3)cn2)cc1C(=O)O`: half-maximal inhibition in series [6] (IC50) was put at 35 nM.

`O=C(Nc1ccc(Cc2ccc(NC(=O)c3ccccc3)c(C(=O)O)c2)cc1C(=O)O)c1ccccc1` came in with a half-maximal inhibitory concentration (IC50) in series [6] of 1900 nM. Also, the inhibition result in series [7] was “inactive”.

With `COc1nc(N(CC(C)C)c2cc(Cl)c(F)cc2F)cnc1C(=O)[C@H]1C[C@@H]1C(=O)O`, the IC50 was determined as 4.1 nM in series [1] and 0.28 nM in series [6]. The logD in series [2] stood at 1.8. Moreover, the hepatocyte CLint at 1 µM in series [3] came to 3 µL/min/1e6 cells.

In series [1], `COc1nc(N(CC(C)(C)F)c2cc(C(F)(F)F)ccc2F)cnc1C(=O)[C@H]1C[C@@H]1C(=O)O` yielded an IC50 of 7.8 nM. In series [2], this compound returned a logD of 1.2. In addition, in series [3], the hepatocyte CLint at 1 µM was 1.5 µL/min/1e6 cells.

`COc1cc(N(CC2CC2)c2ccc(F)c(Cl)c2)cnc1C(=O)[C@H]1C[C@@H]1C(=O)O` came in with a logD in series [2] of 1.2. Also, in series [3], the hepatocyte CLint at 1 µM was 3.1 µL/min/1e6 cells. The IC50 in series [8] is 3 µM.

For the compound `COc1nc(C(=O)[C@@H]2C[C@H]2C(=O)O)ncc1N(CC1CC1)c1ccc(Cl)c2ccccc12` (relative stereo), inhibition in series [6] was half-maximal at 15.5 nM (IC50). Besides, the logD in series [2] is 2.9. The hepatocyte CLint at 1 µM in series [3] came to 15 µL/min/1e6 cells.

As to `COc1cc(N(CC2CC2)c2cc(Cl)c(F)cc2F)cnc1C(=O)[C@H]1C[C@@H]1C(=O)O`, in series [2], the logD was 1.1. Also, the hepatocyte CLint at 1 µM in series [3] was less than 1.5 µL/min/1e6 cells. The IC50 in series [8] was 5.4 µM.

Regarding `COc1cc(N(CC(C)(C)F)c2cccc(C(F)(F)F)c2)cnc1C(=O)[C@H]1C[C@@H]1C(=O)O`, the logD in series [2] came out at 0.9. Besides, the hepatocyte CLint at 1 µM in series [3] is less than 1.5 µL/min/1e6 cells. In addition, the IC50 in series [8] came out at 54 µM.
